Test results: paper PMC11990301, “Lipidated DAPEG Polymers as a Non-Toxic Transfection Agent—Influence of Fatty Acid Side Chain on Transfection Efficacy” (Molecules, 2025)

Tests used:
[1] = Complex stability assessment by UV spectra (Nanodrop); format: physicochemical; conditions: Nanodrop UV-Vis, time points 0, 0.5, 1, 2.5 and 5 h, transfection buffer and concentrations (Figure S2)
Procedure: The analysis of all obtained complexes was conducted using a Nanodrop 2000c UV-Vis spectrophotometer (Thermo Scientific, Waltham, MA, USA) at designated time points from 0 to 5 h (0, 0.5, 1, 2.5, and 5). The concentration of the individual components (DNA and the compound) was used as a reference. The concentration of the complexes remained constant in relation to the transfection experiments.

[2] = Dynamic light scattering (DLS) particle size of compounds and compound-pmaxGFP complexes; format: physicochemical; conditions: 25 °C, n = 3; for hydrodynamic diameters, pMAXGFP (-) / PDI (polydispersity index), pMAXGFP (-): compound alone without plasmid, in water; for hydrodynamic diameters, pMAXGFP (-): 2.5 mg/mL as printed, 10 s runs, Litesizer DIA 500, mean ± SD; for PDI (polydispersity index), pMAXGFP (-) / PDI (polydispersity index), pMAXGFP (+) / hydrodynamic diameters, pMAXGFP (+): mean ± SD; for PDI (polydispersity index), pMAXGFP (+) / hydrodynamic diameters, pMAXGFP (+): compound-DNA plasmid complex, N/P 1.5/1, in water
Procedure: Dynamic light scattering (DLS) measurements were performed using the Litesizer DIA 500 (Anton Par, Ostfildern-Scharnhausen, Germany). The concentration of the compounds in water was 2.5 mg/mL, with the inclusion of a DNA plasmid to maintain a charge-to-ratio of 1.5/1 N/P. For system 1:1.5, the concentration of each compound was 0.61 µM; for 3:1–1.21 µM; for 9:1–3.64 µM. The DNA plasmid concentration remains constant and equal at 0.46 nM. The particle size series mode was used in a cuvette with a volume of […]. Each run was recorded at 25 °C for 10 s.

[3] = test system: HEK-293T cell line (spheroids); assay: Transfection efficacy of GFP plasmid (pmaxGFP) in 3D model; format: cell-based; conditions: HEK-293T spheroids
Procedure: (§1) The HEK-293T cell line was cultured using both 2D and 3D techniques. The non-adherent method of forming spheroids was used. Cells (750 cells per well) were seeded in a 96-well U-shaped plate BIOFLOAT (Sarstedt, Nümbrecht, Germany). The HEK-293T cells were cultured at 37 °C in 5% CO2 in Dulbecco’s modified Eagle medium (DMEM; high glucose) supplemented with 10% fetal bovine serum (FBS) and 1% penicillin–streptomycin solution containing 100 units of penicillin and 100 µg/mL of streptomycin. After three days of culturing, the spheroids were formed and ready for further experiments.
Cells were cultured for 72 h under the conditions described above. Mixtures of the selected compounds and pmaxGFP plasmid in N/P ratios (charge peptidomimetic/charge pmaxGFP) of 1.5, 3:1, and 9:1 were incubated for 30 min and used immediately. An appropriate control with plasmid was employed. To each well with spheroids, 10 µL of the mixture described above was added in triplicate up to 90 µL of the full medium. The plate was then incubated at 37 °C with 5% CO2 for 5 h, washed (3 × medium), and cultured for another 72 h. After this process, the cells were inspected under a fluorescent microscope (Olympus IX51 fluorescence microscope (Olympus, Tokyo, Japan)). The molar concentration of particular components was equal to, for system 1:1.5, the concentration of each compound at 0.61 µM; for 3:1–1.21 µM; for 9:1–3.64 µM. The DNA plasmid concentration remains constant and equal at 0.46 nM.

[4] = test system: spheroids of HEK-293T cells; assay: Viability in 3D model, CellTiter Glo 3D (ATP); format: cell-based; conditions: HEK-293T spheroids, 24 h incubation, tested 0, 1, 2, 5, 10, 20 and 50 µM, CellTiter Glo 3D luminescence; n = 3
Procedure: as §1
After culturing for 72 h, spheroids of HEK-293T cells were incubated with increasing amounts of the appropriate compounds (0, 1, 2, 5, 10, 20, and 50 µM) in the medium described above at 37 °C with 5% CO2. After 24 h, the plate was incubated at room temperature (RT) for 30 min, followed by the addition of 100 μL of CellTiter Glo 3D Cell Viability Assay reagent (Promega, Fitchburg, WI, USA). The plate was then covered from light and shaken for 30 min. Next, the contents of each well were transferred to a white flat bottom plate (Nunc A/S, Thermo Fisher, Odense, Denmark) and luminescence was read at 560 nm using the CLARIOstar (BMG Labtech, Ortenberg, Germany).

hydrodynamic diameters, pMAXGFP (-) [2] | PDI (polydispersity index), pMAXGFP (-) [2] | PDI (polydispersity index), pMAXGFP (+) [2] | hydrodynamic diameters, pMAXGFP (+) [2] | Substance | stability of compound and compound-DNA complex: change of UV spectra over time [1] | transfection efficacy ranking across all N/P series (1.5:1, 3:1, 9:1) ([3]; pmaxGFP) | transfection efficacy ranking (GFP fluorescence), N/P ratio 1.5:1 ([3]; compound 0.61 µM, plasmid 0.46 nM, 5 h incubation then 72 h culture) | concentration up to which viability is not suppressed compared to non-treated cells (3D spheroids, ATP) [4] | average fluorescence of spheroids (GFP production), N/P ratio 1.5:1 ([3]; compound 0.61 µM, plasmid 0.46 nM, 5 h incubation then 72 h culture, mean, n = 3) [arbitrary units] | average fluorescence of spheroids (GFP production), N/P ratio 3:1 ([3]; compound 1.21 µM, plasmid 0.46 nM, 5 h incubation then 72 h culture, mean, n = 3) | transfection efficacy ranking (GFP fluorescence), N/P ratio 9:1 ([3]; compound 3.64 µM, plasmid 0.46 nM, 5 h incubation then 72 h culture)
337,2 ± 28,6 nm | 27,8 ± 1,5% | 30,6 ± 2,5% | 4761,0 ± 190,1 nm | C4H7O-O2Oc-[Dap(GO2)]8-O2Oc-NH2 [compound 2] |  |  |  |  |  |  | 
599,5 ± 80,8 nm | 23,5 ± 2,4% | 30,7 ± 2,6% | 3006,0 ± 133,9 nm | C6H11O-O2Oc-[Dap(GO2)]8-O2Oc-NH2 [compound 3] |  |  |  |  |  |  | 
240,6 ± 36,9 nm | 24,9 ± 2,2% | 34,3 ± 4,2% | 4605,7 ± 90,9 nm | C10H19O-O2Oc-[Dap(GO2)]8-O2Oc-NH2 [compound 5] |  |  |  |  |  |  | 
373,5 ± 59,7 nm | 25,6 ± 3,2% | 21,2 ± 2,4% | 135,0 ± 3,2 nm | C14H27O-O2Oc-[Dap(GO2)]8-O2Oc-NH2 [compound 7] |  |  |  |  |  |  | 
337,4 ± 17,7 nm | 23,2 ± 2,8% | 24,2 ± 1,6% | 283,7 ± 5,9 nm | C12H23O-O2Oc-[Dap(GO2)]8-O2Oc-NH2 [compound 6] |  |  |  |  |  |  | 
329,1 ± 39,3 nm | 18,3 ± 1,5% | 29,9 ± 2,8% | 2235,3 ± 48,0 nm | H-O2Oc-[Dap(GO2)]8-O2Oc-NH2 [1a, reference compound] |  | lowest in each series |  |  |  |  | 
517,6 ± 63,3 nm | 24,8 ± 1,9% | 26,3 ± 2,9% | 308,7 ± 22,7 nm | C16H31O-O2Oc-[Dap(GO2)]8-O2Oc-NH2 [compound 8] |  |  | greatest fluorescence |  |  |  | 
309,0 ± 56,2 nm | 25,5 ± 2,9% | 30,1 ± 1,7% | 5580,7 ± 321,2 nm | C2H3O-O2Oc-[Dap(GO2)]8-O2Oc-NH2 [compound 1] |  |  |  | up to 5 µM | ~150 | around 200 arbitrary units | superior fluorescence

Substance | hydrodynamic diameters, pMAXGFP (-) [2] | PDI (polydispersity index), pMAXGFP (-) [2] | PDI (polydispersity index), pMAXGFP (+) [2] | hydrodynamic diameters, pMAXGFP (+) [2] | stability of compound and compound-DNA complex: change of UV spectra over time [1] | transfection efficacy ranking across all N/P series (1.5:1, 3:1, 9:1) ([3]; pmaxGFP) | transfection efficacy ranking (GFP fluorescence), N/P ratio 1.5:1 ([3]; compound 0.61 µM, plasmid 0.46 nM, 5 h incubation then 72 h culture) | concentration up to which viability is not suppressed compared to non-treated cells (3D spheroids, ATP) [4] | average fluorescence of spheroids (GFP production), N/P ratio 1.5:1 ([3]; compound 0.61 µM, plasmid 0.46 nM, 5 h incubation then 72 h culture, mean, n = 3) [arbitrary units] | average fluorescence of spheroids (GFP production), N/P ratio 3:1 ([3]; compound 1.21 µM, plasmid 0.46 nM, 5 h incubation then 72 h culture, mean, n = 3) | transfection efficacy ranking (GFP fluorescence), N/P ratio 9:1 ([3]; compound 3.64 µM, plasmid 0.46 nM, 5 h incubation then 72 h culture)
C8H15O-O2Oc-[Dap(GO2)]8-O2Oc-NH2 [compound 4] | 508,9 ± 62,2 nm | 24,4 ± 2,3% | 29,4 ± 2,5% | 3446,7 ± 208,5 nm | do not show significant changes over time |  |  |  |  |  | 
